Data taken from patent publication US12152038B2, “Vasopressin receptor antagonists and products and methods related thereto” (Neumora Therapeutics, Inc., priority 2017, dated 2024).
Where two headings read alike, the source gives them in different places.

Legend:
MDR1 (P-glycoprotein) = target: T1, MDR1 (P-glycoprotein) (Homo sapiens, UniProt P08183); test: MDR1-MDCK permeability and efflux assay (Papp, efflux ratio, effective efflux ratio); type: in vitro ADME; settings: dog; for Papp A→B at 1 h, 10 μM: pH 7.4, read-out: Papp AB MDR1
T1 construct: host or cells: MDCK (MDR1-MDCK; wild-type MDCK as comparator)
Summary of the method: (§1)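 Confluent WT or MDR1-MDCK monolayers (3-day culture) dosed with 10 μM compound, 0.1% DMSO, in HBSS/25 mM HEPES pH 7.4, A>B and B>A, 1 h at 37 °C; LC-MS/MS quantitation. Papp from acceptor/donor ratio; efflux ratio = Papp B>A/A>B; EER = ER(MDR1)/ER(WT).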

[1] = Wild-type MDCK permeability and efflux assay (Papp, efflux ratio); type: in vitro ADME; settings: dog, pH 7.4, wild-type MDCK cells; for efflux ratio at 1 h, 10 μM: Papp B>A/Papp A>B, read-out: ER WT (Efflux Ratio)
Summary of the method: as §1

[2] = MDCK-MDR1, pH 7.4, ER(MDR1-MDCK)/ER(wild-type MDCK), read-out: EER (Effective Efflux Ratio)
[3] = MDCK-MDR1, pH 7.4, Papp B>A/Papp A>B, MDR1-MDCK cells, read-out: ER MDR1 (Efflux Ratio)

T1 sequence (P08183 whole entry): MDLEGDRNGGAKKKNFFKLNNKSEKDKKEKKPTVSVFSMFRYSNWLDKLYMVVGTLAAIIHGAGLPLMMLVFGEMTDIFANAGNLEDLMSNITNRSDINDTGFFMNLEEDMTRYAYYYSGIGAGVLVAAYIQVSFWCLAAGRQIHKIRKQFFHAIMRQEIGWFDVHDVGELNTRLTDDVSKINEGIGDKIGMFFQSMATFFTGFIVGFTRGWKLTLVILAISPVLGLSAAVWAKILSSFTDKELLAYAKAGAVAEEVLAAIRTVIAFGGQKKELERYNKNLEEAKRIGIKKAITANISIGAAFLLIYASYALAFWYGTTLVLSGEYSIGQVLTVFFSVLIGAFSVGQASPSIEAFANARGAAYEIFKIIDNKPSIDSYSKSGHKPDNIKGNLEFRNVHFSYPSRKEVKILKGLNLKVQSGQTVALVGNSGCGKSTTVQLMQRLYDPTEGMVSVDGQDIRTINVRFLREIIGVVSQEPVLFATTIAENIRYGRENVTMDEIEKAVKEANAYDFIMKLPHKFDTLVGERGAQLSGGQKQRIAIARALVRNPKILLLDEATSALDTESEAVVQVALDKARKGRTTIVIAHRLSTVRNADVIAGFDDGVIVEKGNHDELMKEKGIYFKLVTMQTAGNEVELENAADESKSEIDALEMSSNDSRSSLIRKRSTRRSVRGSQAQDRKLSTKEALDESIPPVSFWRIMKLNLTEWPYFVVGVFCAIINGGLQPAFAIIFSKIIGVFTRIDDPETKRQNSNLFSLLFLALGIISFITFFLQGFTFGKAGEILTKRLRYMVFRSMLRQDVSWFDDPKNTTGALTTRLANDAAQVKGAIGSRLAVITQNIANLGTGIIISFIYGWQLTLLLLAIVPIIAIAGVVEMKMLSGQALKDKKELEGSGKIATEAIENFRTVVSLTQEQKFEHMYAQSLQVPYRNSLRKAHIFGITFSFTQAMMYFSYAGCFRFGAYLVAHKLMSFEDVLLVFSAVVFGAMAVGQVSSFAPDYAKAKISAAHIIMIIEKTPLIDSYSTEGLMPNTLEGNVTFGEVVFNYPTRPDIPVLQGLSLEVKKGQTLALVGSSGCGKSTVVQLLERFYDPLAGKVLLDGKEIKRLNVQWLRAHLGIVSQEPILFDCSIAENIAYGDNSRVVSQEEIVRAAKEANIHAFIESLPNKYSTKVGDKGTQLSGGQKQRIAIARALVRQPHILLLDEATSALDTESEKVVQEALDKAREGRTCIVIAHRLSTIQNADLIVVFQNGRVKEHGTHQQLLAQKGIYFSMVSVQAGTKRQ

| Structure (SMILES) | efflux ratio at 1 h, 10 μM (MDR1 (P-glycoprotein); [2]) | efflux ratio at 1 h, 10 μM (MDR1 (P-glycoprotein); [3]) | Papp A→B at 1 h, 10 μM (MDR1 (P-glycoprotein); MDR1-MDCK cells) [×10⁻⁶ cm/s] | Papp A→B at 1 h, 10 μM [1] [×10⁻⁶ cm/s] | efflux ratio at 1 h, 10 μM [1] |
| --- | --- | --- | --- | --- | --- |
| CC1COc2cc(Cl)ccc2N1C(=O)N1CC2(C1)CN(c1noc3ccccc13)C2 (centres unmarked) [21-1, (6-(benzo[d]isoxazol-3-yl)-2,6-diazaspiro[3.3]heptan-2-yl)(7-chloro-3-methyl-2,3-dihydro-4H-benzo[b][1,4]oxazin-4-yl)methanone] | 2 to 3 | 1 to 2 | 7 to 10 | 10 to 20 | < 1 |
| CC1COc2cc(Cl)ccc2N1C(=O)N1CC2(C1)CN(c1ccccn1)C2 (single isomer, unassigned) [1-60-B] | 1 to 2 | < 1 | > 20 | > 20 | < 1 |
| CC1COc2cc(F)ccc2N1C(=O)N1CC2(C1)CN(c1cnccn1)C2 (single isomer, unassigned) [1-65-B] | < 1 | 1 to 2 | > 20 | > 20 | 1 to 2 |
| O=C(N1CC2(C1)CN(c1cc(F)ccn1)C2)N1CCOc2cc(Cl)ccc21 [1-70] | < 1 | 1 to 2 | > 20 | > 20 | 1 to 2 |
| Cc1nccc(N2CC3(CN(C(=O)N4c5ccc(Cl)cc5OCC4C)C3)C2)n1 (centres unmarked) [21-8] | 2 to 3 | 1 to 2 | > 20 | > 20 | < 1 |
| O=C(N1CC2(C1)CN(c1cccnc1)C2)N1CCOc2cc(Cl)ccc21 [1-72] | 1 to 2 | < 1 | > 20 | > 20 | < 1 |
| CC1COc2cc(Cl)ccc2N1C(=O)N1CC2(C1)CN(c1ccncn1)C2 (centres unmarked) [21-6] | 2 to 3 | < 1 | > 20 | > 20 | < 1 |
| O=C(N1CC2(C1)CN(c1cnc(F)cn1)C2)N1CCOc2cc(Cl)ccc21 [1-18] | < 1 | < 1 | > 20 | > 20 | < 1 |
| CC1COc2cc(Cl)ccc2N1C(=O)N1CC2(C1)CN(c1ncncc1F)C2 (centres unmarked) [21-5] | < 1 | 1 to 2 | > 20 | > 20 | 1 to 2 |
| Cc1cnc(N2CC3(CN(C(=O)N4c5ccc(Cl)cc5OCC4C)C3)C2)nc1 (single isomer, unassigned) [20-13-B] | 1 to 2 | 1 to 2 | > 20 | > 20 | < 1 |
| CC1COc2cc(Cl)ccc2N1C(=O)N1CC2(C1)CN(c1ccccn1)C2 (centres unmarked) [1-60] | < 1 | < 1 | > 20 | > 20 | < 1 |
| O=C(N1CC2(C1)CN(c1cccnn1)C2)N1CCOc2cc(Cl)ccc21 [1-71] | > 3 | 1 to 2 | > 20 | > 20 | < 1 |
| CC1COc2cc(Cl)ccc2N1C(=O)N1CC2(C1)CN(c1nn(C)c3ncccc13)C2 (single isomer, unassigned) [20-15-B] | 1 to 2 | < 1 | > 20 | > 20 | < 1 |
| Cc1cncc(N2CC3(CN(C(=O)N4c5ccc(Cl)cc5OCC4C)C3)C2)n1 (centres unmarked) [21-3] | 1 to 2 | 1 to 2 | > 20 | > 20 | < 1 |
| COc1ccc2c(c1)OCC(C)N2C(=O)N1CC2(C1)CN(c1ccc(F)cn1)C2 (single isomer, unassigned) [1-59-B] | 1 to 2 | 1 to 2 | > 20 | > 20 | < 1 |
| Cc1cncc(N2CC3(CN(C(=O)N4CCOc5cc(Cl)ccc54)C3)C2)n1 [1-22] | 1 to 2 | 1 to 2 | > 20 | > 20 | < 1 |
| CC1COc2cc(Cl)ccc2N1C(=O)N1CC2(C1)CN(c1nccc(C(F)(F)F)n1)C2 (centres unmarked) [21-10] | 1 to 2 | 1 to 2 | 10 to 20 | 10 to 20 | 1 to 2 |
| CC1COc2cc(Cl)ccc2N1C(=O)N1CC2(C1)CN(c1ncccc1C#N)C2 (centres unmarked) [21-2] | 1 to 2 | 1 to 2 | > 20 | > 20 | < 1 |
| O=C(N1CC2(C1)CN(c1ccc(F)cn1)C2)N1CCOc2cc(F)ccc21 [1-64] | 1 to 2 | 1 to 2 | > 20 | > 20 | < 1 |
| CC1COc2cc(Cl)ccc2N1C(=O)N1CC2(C1)CN(c1cnccn1)C2 (single isomer, unassigned) [1-58-B] | 1 to 2 | 1 to 2 | > 20 | > 20 | 1 to 2 |
| Cc1cnnc(N2CC3(CN(C(=O)N4c5ccc(Cl)cc5OCC4C)C3)C2)c1 (centres unmarked) [21-4] | > 3 | > 3 | > 20 | > 20 | 1 to 2 |
| CC1COc2cc(Cl)ccc2N1C(=O)N1CC2(C1)CN(c1ncc(F)cn1)C2 (single isomer, unassigned) [18-2-B] | < 1 | < 1 | > 20 | > 20 | < 1 |
